Results as given in article PMC7914304 (Bioorganic & medicinal chemistry, 2020).
Read-outs that look alike come from different tables or passages of the source.

Experiments:
logP by HPLC method = assay type: physicochemical
[1] = mice, oral, cited from earlier work

CC[C@H](C)C(=O)N1CCC(NC(=O)Nc2ccc(OC(F)(F)F)cc2)CC1 [compound 3]
logP (logP by HPLC method): 3.97
AUC ([1]; 0.3 mg/kg): 2.53 µM·h
Cmax ([1]; 0.3 mg/kg): 195 nM
T1/2 ([1]; 0.3 mg/kg): 7.7 h
Tmax ([1]; 0.3 mg/kg): 4 h

CC(=O)N1CCC(NC(=O)NC23CC4CC(CC(C4)C2)C3)CC1 [inhibitor 1]
AUC ([1]; 0.5 mg/kg): 0.183 µM·h
Cmax ([1]; 0.5 mg/kg): 30 nM
T1/2 ([1]; 0.5 mg/kg): 3 h
Tmax ([1]; 0.5 mg/kg): 1 h
